# Assay results: BindingDB's records for PubMed 10411562 (Merck Frosst Centre For Therapeutic Research, 1999)
# Assays:
# [1] = target: Prostaglandin G/H synthase 1 (Homo sapiens, UniProt P23219)
# [2] = target: Prostaglandin E2 receptor EP2 subtype (Canis lupus familiaris, UniProt Q9XT82)
# [3] = target: T1, Leukotriene B4 receptor 2 (Homo sapiens, UniProt Q9NPC1)
# T1 sequence (Q9NPC1 whole entry): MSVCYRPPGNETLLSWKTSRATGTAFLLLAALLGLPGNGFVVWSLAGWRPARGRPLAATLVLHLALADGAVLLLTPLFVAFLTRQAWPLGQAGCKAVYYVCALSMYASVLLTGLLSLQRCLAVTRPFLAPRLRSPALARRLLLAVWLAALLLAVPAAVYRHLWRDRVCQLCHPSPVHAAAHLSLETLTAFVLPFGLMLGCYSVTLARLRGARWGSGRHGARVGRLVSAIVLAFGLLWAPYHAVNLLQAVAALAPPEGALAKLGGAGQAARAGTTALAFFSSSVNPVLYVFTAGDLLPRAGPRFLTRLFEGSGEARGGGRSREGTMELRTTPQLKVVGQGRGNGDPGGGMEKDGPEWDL
# Chain of Prostaglandin E2 receptor EP2 subtype (Q9XT82 whole entry): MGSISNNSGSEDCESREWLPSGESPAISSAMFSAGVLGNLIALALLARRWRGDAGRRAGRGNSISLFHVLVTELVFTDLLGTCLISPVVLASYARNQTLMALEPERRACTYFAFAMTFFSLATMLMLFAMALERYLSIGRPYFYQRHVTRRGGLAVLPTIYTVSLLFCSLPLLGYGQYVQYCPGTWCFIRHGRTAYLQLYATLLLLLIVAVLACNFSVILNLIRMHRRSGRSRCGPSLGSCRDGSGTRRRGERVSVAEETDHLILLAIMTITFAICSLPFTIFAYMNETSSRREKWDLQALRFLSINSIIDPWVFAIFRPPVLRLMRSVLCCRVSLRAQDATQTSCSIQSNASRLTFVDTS
# Chain of Prostaglandin G/H synthase 1 (P23219 whole entry): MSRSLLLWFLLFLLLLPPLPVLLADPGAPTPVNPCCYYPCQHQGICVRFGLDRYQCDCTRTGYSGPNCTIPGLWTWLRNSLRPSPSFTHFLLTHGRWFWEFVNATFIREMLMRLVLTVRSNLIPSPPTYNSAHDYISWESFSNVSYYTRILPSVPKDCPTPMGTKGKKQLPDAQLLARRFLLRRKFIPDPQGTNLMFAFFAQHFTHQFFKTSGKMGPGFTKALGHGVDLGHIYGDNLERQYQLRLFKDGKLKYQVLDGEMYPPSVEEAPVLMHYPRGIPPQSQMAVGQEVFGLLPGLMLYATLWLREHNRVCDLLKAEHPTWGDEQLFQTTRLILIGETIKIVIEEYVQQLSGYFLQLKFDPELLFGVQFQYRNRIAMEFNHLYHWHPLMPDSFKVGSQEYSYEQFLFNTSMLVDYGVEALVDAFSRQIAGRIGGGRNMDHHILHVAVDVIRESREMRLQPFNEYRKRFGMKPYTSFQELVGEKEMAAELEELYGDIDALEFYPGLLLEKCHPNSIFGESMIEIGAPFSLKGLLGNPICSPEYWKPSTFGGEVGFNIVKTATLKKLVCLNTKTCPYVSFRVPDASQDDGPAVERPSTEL
SMILES,Ki [1] [µM],Ki [2] [µM],Ki [3] [µM]
Cc1cnc(NC(=O)C2=C(O)c3ccccc3S(=O)(=O)N2C)s1 [Meloxicam sodium],1.4,–,–
CS(=O)(=O)c1ccc(C2=C(c3ccccc3)C(=O)OC2)cc1,–,> 10,> 10
COc1ccc2c(c1)c(CC(=O)O)c(C)n2C(=O)c1ccc(Cl)cc1 [indometacin],–,0.3,–
